Results published in patent publication US4518611A, “2-Furylbutyrolactone modulation of the immune system in mammals” (priority 1983, dated 1985).
“And” between values parts separate entries of the source, which are not always exact repeats. Identical values can stand only once. “Also recorded” adds a separate entry of the source.

Assays:
spleen lymphocytes [1] = assay: In vitro lymphocyte stimulation assay, C57BL/6 spleen lymphocytes; type: cell-based, mouse
Experimental: (§1) The purpose of this assay is to challenge lymphocytes in microcultures with one or more polyclonal mitogens at concentrations that will induce mitogenesis within 72 hours of stimulation.
(§2) In the mouse model, spleens are removed from different strains of mice and the spleen cells are teased free and suspended in RPMI-1640 tissue culture medium at a concentration of usually […]. These cells are dispensed at a concentration of 5.0×10^5 cells per microculture well in a 96 well flat bottom 96 well tissue culture plate. All testing of the compounds of this invention or mitogens are done in replicates of 10. The cells are then treated with PHA, Con-A, specific antigens, or buffer only. If in vitro testing is done, varying concentrations of the compounds of this invention or buffer only are added to the cells as well. After treatment with the mitogens and/or compounds of this invention, the cells are incubated for 72 hours. The response of these cells to mitogens and/or the compounds of this invention is assessed using ^14 C-thymidine labeling on the fourth day at a concentration of 0.01 μCi/well. The labeled cells are harvested using a lymphocyte harvestor and placed onto fibrous paper discs. A scintillation cocktail is added to vials containing the discs and the results are obtained using a LKB-liquid scintillation counter (Model 1216/Rackbeta II). The data is expressed as a ratio of the cpm of the mitogen stimulated group to the control (nonmitogen) treated group=lymphocyte stimulation index (LSI).
(§3) The lymphocyte stimulation assay may be performed directly on spleen cells obtained from various strains of mice not treated with the compounds of this invention or on lymphocytes obtained from human […]. […] Alternatively, the mice may be treated in vivo with the compounds of this invention by intraperitoneal multi-dose schedules, followed by sacrifice and harvesting spleen lymphocytes. These cells are then tested for their response to polyclonal mitogens or specific antigens used to immunize the mice. In this system however, no additional compound is added to the in vitro lymphocyte stimulation assay system.
An in vitro lymphocyte stimulation assay is performed directly on normal spleen lymphocytes removed from five normal C57BL/6 mice, using concentrations of Cpd. […] Following three days of incubation the assay is completed.
An in vitro lymphocyte stimulation assay was performed using spleen lymphocytes from normal C57BL/6 mice. The lymphocytes were treated with either 1, 5, 10, 50 or 100 μg/well of Cpd. 1 or buffer.
Cpd. 2 was tested using normal spleen lymphocytes from C57BL/6 mice. A lymphocyte stimulation assay was conducted using either 1, 5, 10, 50, or 100 μg/well […] or just buffer.
Spleen cells from C57BL/6 mice were treated, in vitro, with the crystallizing reagents, succinic acid and succinimide. Since these compounds are spontaneously released from the molecular complex in solution at a molar ratio of 2 moles of Cpds. 1, 2, or 3 per mole of the crystalline reagent, these reagents were treated in the lymphocyte stimulation assay at proper molar concentrations.
The compound of example 3, Cpd. 3, was used to treat C57BL/6 spleen lymphocytes in vitro. The lymphocytes were treated with either 1, 5, 10, 50, or 100 μg/well of Cpd. 3 or just buffer and then a lymphocyte stimulation assay was performed.

spleen lymphocytes [2] = assay: Lymphocyte stimulation assay after in vivo treatment, C57BL/6 mice; conditions: for effect on Con-A response (in words) / effect on PHA response (in words) / effect on mitogen response (in words): i.p.; for effect on mitogen response (in words): PHA and Con-A
Experimental: as §1, §2, §3
Two strains of mice, C57BL/6 and BDF1 are treated for seven days with i.p. administration of either 25, 50, 100, 200, or 400 mg/kg of Cpd. 1 or just buffer. This is followed on the eighth day by a lymphocyte stimulation assay.
A comparison is made of the lymphocyte response of C57BL/6 mice treated 4 days with i.p. administration of either 50, 100, 200, 400 or 800 mg/kg of Cpd. 1, 50, 100, 200, 400 or 800 mg/kg of ascorbic acid (AA), or just buffer. This is followed on the fifth day by a lymphocyte stimulation assay.
Two strains of mice, C57BL/6 and BALB/c, are treated 4 days with i.p. administration of either 50, 100, 200, or 400 mg/kg of Cpd. 1, or just buffer. This is followed on the fifth day by a lymphocyte stimulation assay.
C57BL/6 mice were treated with four daily i.p. doses of either 50, 100, 200, or 400 mg/kg of Cpd. 1 or just buffer. On the fifth day a lymphocyte stimulation assay was performed.
Mice of the C57BL/6 strain were tested with i.p. administration of either 100, 200, 400 or 600 mg/kg of Cpd. 1 or just buffer. This was followed by removal of spleens and treatment of lymphocytes therein with mitogens PHA and Con-A.
The compound of Example 2, Cpd. 2, was tested in vivo by using C57BL/6 mice and treating them with […] or just buffer for four consecutive days by the i.p. route. On the fifth day a lymphocyte stimulation assay was performed.

[3] = 100 mg/kg i.p., five day administration
[4] = 200 mg/kg i.p., five day administration
[5] = 400 mg/kg i.p., five day administration
[6] = 600 mg/kg i.p., five day administration

Cc1ccc(C2(O)C(=O)OC3C(O)COC32O)o1.Cc1ccc(C2(O)C(=O)OC3C(O)COC32O)o1.O=C1CCC(=O)O1 (centres unmarked) [Cpd. 1, 2-furylbutyrolactone:succinic anhydride]
Lymphocyte Stimulation Index, Control (no mitogen) (spleen lymphocytes [1]; 5 μg/well): 1.8
Lymphocyte Stimulation Index, Control (no mitogen) (spleen lymphocytes [1]; 50 μg/well): .20
Lymphocyte Stimulation Index, Control (no mitogen) (spleen lymphocytes [1]; 100 μg/well): .20
Lymphocyte Stimulation Index, Control (no mitogen) (spleen lymphocytes [1]; .001 μg/well): 3.8
Lymphocyte Stimulation Index, Control (no mitogen) (spleen lymphocytes [1]; .01 μg/well): 3.2
Lymphocyte Stimulation Index, Control (no mitogen) (spleen lymphocytes [1]; .1 μg/well): 3.2
Lymphocyte Stimulation Index, PHA (spleen lymphocytes [2]; 50 mg/kg i.p., 4 days): 13.6 and 17.0
Lymphocyte Stimulation Index, Con-A (spleen lymphocytes [2]; 50 mg/kg i.p., 7 days): 26.0
Lymphocyte Stimulation Index, Control (no mitogen) (spleen lymphocytes [2]; 50 mg/kg i.p., 7 days): 1.0
Lymphocyte Stimulation Index, Con-A (spleen lymphocytes [2]; 100 mg/kg i.p., 7 days): 40.0
Lymphocyte Stimulation Index, Control (no mitogen) (spleen lymphocytes [2]; 100 mg/kg i.p., 7 days): 1.3
Lymphocyte Stimulation Index, PHA (spleen lymphocytes [2]; 100 mg/kg i.p., 7 days): 17.7
Lymphocyte Stimulation Index, Con-A (spleen lymphocytes [2]; [3]): 43.9
Lymphocyte Stimulation Index, Control (no mitogen) (spleen lymphocytes [2]; [3]): .80
Lymphocyte Stimulation Index, PHA (spleen lymphocytes [2]; [3]): 51.1
Lymphocyte Stimulation Index, PHA (spleen lymphocytes [2]; 200 mg/kg i.p., 4 days): 42.8 and 25.2 and 23.2
Lymphocyte Stimulation Index, Con-A (spleen lymphocytes [2]; 200 mg/kg i.p., 7 days): 34.0
Lymphocyte Stimulation Index, Control (no mitogen) (spleen lymphocytes [2]; 200 mg/kg i.p., 7 days): 1.0
Lymphocyte Stimulation Index, PHA (spleen lymphocytes [2]; 200 mg/kg i.p., 7 days): 21.3
Lymphocyte Stimulation Index, Con-A (spleen lymphocytes [2]; [4]): 36.6
Lymphocyte Stimulation Index, Control (no mitogen) (spleen lymphocytes [2]; [4]): .62
Lymphocyte Stimulation Index, PHA (spleen lymphocytes [2]; [4]): 48.2
Lymphocyte Stimulation Index, Con-A (spleen lymphocytes [2]; 400 mg/kg i.p., 4 days): 40.0 and 30.9 and 26.4
Lymphocyte Stimulation Index, Con-A (spleen lymphocytes [2]; 400 mg/kg i.p., 7 days): 20.7
Lymphocyte Stimulation Index, Control (no mitogen) (spleen lymphocytes [2]; 400 mg/kg i.p., 7 days): 1.0
Lymphocyte Stimulation Index, PHA (spleen lymphocytes [2]; 400 mg/kg i.p., 7 days): 3.2
Lymphocyte Stimulation Index, Con-A (spleen lymphocytes [2]; [5]): 42.4
Lymphocyte Stimulation Index, Control (no mitogen) (spleen lymphocytes [2]; [5]): .49
Lymphocyte Stimulation Index, PHA (spleen lymphocytes [2]; [5]): 44.9
Lymphocyte Stimulation Index, Con-A (spleen lymphocytes [2]; [6]): 26.5
Lymphocyte Stimulation Index, Control (no mitogen) (spleen lymphocytes [2]; [6]): 1.7
Lymphocyte Stimulation Index, PHA (spleen lymphocytes [2]; [6]): 17.6
evidence of toxicity (spleen lymphocytes [2]; 600 mg/kg, five day administration): no evidence of toxicity
Lymphocyte Stimulation Index, Con-A (spleen lymphocytes [2]; 800 mg/kg i.p., 4 days): .612
Lymphocyte Stimulation Index, Control (no mitogen) (spleen lymphocytes [2]; 800 mg/kg i.p., 4 days): .31
Lymphocyte Stimulation Index, PHA (spleen lymphocytes [2]; 800 mg/kg i.p., 4 days): .408
effect on Con-A response (in words) (spleen lymphocytes [2]; 4 days): doses ranging from 50 to 200 mg/kg have a significant stimulatory effect; also recorded: doses ranging from 400 to 800 mg/kg have a significant anti-proliferative effect
effect on PHA response (in words) (spleen lymphocytes [2]; 4 days): doses of 100 and 200 mg/kg of Cpd. 1 tend to stimulate lymphocyte DNA synthesis; also recorded: Doses ranging from 400 to 800 suppress DNA synthesis of spleen lymphocytes; also recorded: a decrease in the response to PHA at the 400 mg/kg dose when compared to the response at the 200 mg/kg dose
effect on mitogen response (in words) (spleen lymphocytes [2]; 7 days): strong suppression of the PHA response in the C57BL/6 mice; also recorded: a suppression of the Con-A response in C57BL/6 mice when compared to the 200 mg/kg dose; also recorded: at a dose of 200 mg/kg in C57BL/6 mice; also recorded: in the C57BL/6 strain, it is increased at doses of 50, 100 and 200 mg/kg
effect on mitogen response (in words) (spleen lymphocytes [2]; five day administration): Doses ranging from 100 to 400 mg/kg of Cpd. 1 caused significant stimulation of both the Con-A and PHA treated lymphocytes; also recorded: The high dose, 600 mg/kg, caused less stimulation than the 100 to 400 mg/kg doses and gave levels comparable to controls
effect on mitogen response (in words) (spleen lymphocytes [2]; four daily doses): Stimulation of the response to polyclonal mitogens at doses of Cpd. 1 from 50-400 mg/kg with a maximum response achieved between doses of 100-200 mg/kg

2-furylbutyrolactone:succinimide [Cpd. 2]
Lymphocyte Stimulation Index, Con-A (spleen lymphocytes [1]; 1 μg/well): 147
Lymphocyte Stimulation Index, Control (no mitogen) (spleen lymphocytes [1]; 1 μg/well): .92
Lymphocyte Stimulation Index, PHA (spleen lymphocytes [1]; 1 μg/well): 25.4
Lymphocyte Stimulation Index, Con-A (spleen lymphocytes [1]; 5 μg/well): 148
Lymphocyte Stimulation Index, Control (no mitogen) (spleen lymphocytes [1]; 5 μg/well): 1.2
Lymphocyte Stimulation Index, PHA (spleen lymphocytes [1]; 5 μg/well): 29.8
Lymphocyte Stimulation Index, Con-A (spleen lymphocytes [1]; 10 μg/well): 164
Lymphocyte Stimulation Index, Control (no mitogen) (spleen lymphocytes [1]; 10 μg/well): 1.1
Lymphocyte Stimulation Index, PHA (spleen lymphocytes [1]; 10 μg/well): 38.8
Lymphocyte Stimulation Index, Con-A (spleen lymphocytes [1]; 50 μg/well): 218
Lymphocyte Stimulation Index, Control (no mitogen) (spleen lymphocytes [1]; 50 μg/well): .80
Lymphocyte Stimulation Index, PHA (spleen lymphocytes [1]; 50 μg/well): 45.8
Lymphocyte Stimulation Index, Con-A (spleen lymphocytes [1]; 100 μg/well): 144
Lymphocyte Stimulation Index, Control (no mitogen) (spleen lymphocytes [1]; 100 μg/well): .49
Lymphocyte Stimulation Index, PHA (spleen lymphocytes [1]; 100 μg/well): 3.83
effect on Con-A response (in words) (spleen lymphocytes [1]; in vitro, Con-A): the 200 μg/well dose had a stimulatory effect; also recorded: the 400 μg/well doses had an anti-proliferative effect
Lymphocyte Stimulation Index, Con-A (spleen lymphocytes [2]; 50 mg/kg i.p., 4 days): 96.1
Lymphocyte Stimulation Index, Control (no mitogen) (spleen lymphocytes [2]; 50 mg/kg i.p., 4 days): .88
Lymphocyte Stimulation Index, PHA (spleen lymphocytes [2]; 50 mg/kg i.p., 4 days): 15.5
Lymphocyte Stimulation Index, Con-A (spleen lymphocytes [2]; 100 mg/kg i.p., 4 days): 105
Lymphocyte Stimulation Index, Control (no mitogen) (spleen lymphocytes [2]; 100 mg/kg i.p., 4 days): 1.5
Lymphocyte Stimulation Index, PHA (spleen lymphocytes [2]; 100 mg/kg i.p., 4 days): 15.4
Lymphocyte Stimulation Index, Con-A (spleen lymphocytes [2]; 200 mg/kg i.p., 4 days): 99.3
Lymphocyte Stimulation Index, Control (no mitogen) (spleen lymphocytes [2]; 200 mg/kg i.p., 4 days): .69
Lymphocyte Stimulation Index, PHA (spleen lymphocytes [2]; 200 mg/kg i.p., 4 days): 11.3
Lymphocyte Stimulation Index, Con-A (spleen lymphocytes [2]; 400 mg/kg i.p., 4 days): 109
Lymphocyte Stimulation Index, Control (no mitogen) (spleen lymphocytes [2]; 400 mg/kg i.p., 4 days): 1.3
Lymphocyte Stimulation Index, PHA (spleen lymphocytes [2]; 400 mg/kg i.p., 4 days): 12.9
Lymphocyte Stimulation Index, Con-A (spleen lymphocytes [2]; 600 mg/kg i.p., 4 days): 94.0
Lymphocyte Stimulation Index, Control (no mitogen) (spleen lymphocytes [2]; 600 mg/kg i.p., 4 days): 1.5
Lymphocyte Stimulation Index, PHA (spleen lymphocytes [2]; 600 mg/kg i.p., 4 days): 15.8
effect on Con-A response (in words) (spleen lymphocytes [2]; 4 days): only marginal stimulation of Con-A mitogenesis
effect on PHA response (in words) (spleen lymphocytes [2]; 4 days): no effect on PHA mitogenesis
